Source: US20020052361A1, “Pharmaceutical compositions and method for the treatment of hypertension” (priority 1999, published 2002)

Columns and labels:
Type in all cases: in vivo, Sprague-Dawley rats
chronically hypoxic rats [1] = assay: Effect on pulmonary artery remodelling: muscularisation of distal pulmonary vessels (histology, van Gieson staining)
Procedure: (§1) The test substance employed was (3S,2R′)-3-[1-(2′-(carboxy-4′-phenylbutyl)cyclopentane-1-carbonylamino]-2,3,4,5-tetrahydro-2-oxo-1H-1-benzazepine-1-acetic acid, which is representative of the substances of formula I which can be used in the invention. The dose of the substance administered was 40 mg/kg per day (sufficient to suppress the pressure feedback on big endothelin).
(§2) The test animals used were Sprague-Dawley rats (260 to 310 g; n=6 to 10 per test group). In order to produce pulmonary hypertension, the animals were exposed to […] hypoxic conditions in a pressure chamber. For comparison, one control group was kept under normal air and another control group under hypoxic conditions.
(§3) The animals were treated with the active substance or a vehicle by means of osmotic mini-pumps. The osmotic mini-pumps had been implanted intraperitoneally in the animals before they were kept in a pressure chamber 24 h later for a period of two weeks. There the animals were kept at normal pressure either under hypoxic conditions (10% O2) or in normal air. After two weeks the animals were prepared for the haemodynamic tests and the measurements were carried out.
After the rats had been sacrificed, the lungs as well as the hearts were isolated. The lungs underwent histological examination, i.e. the degree of muscularisation of the distal pulmonary vessels was determined after “van Gieson” staining, by microscopy at 400× magnification. The effects of the test substance on pulmonary artery remodelling (i.e. on muscularisation of the distal pulmonary vessels) during two weeks' hypoxia are presented in Table 2 in comparison with the hypoxic control tests. The given data are means±standard deviations and were statistically analysed by means of ANOVA.

chronically hypoxic rats [2] = assay: Haemodynamic tests: pulmonary artery pressure in rats kept 14 days under normoxic or hypoxic conditions; conditions: for PAP (pulmonary artery pressure): rats, 40 mg/kg/day for 14 days via i.p. osmotic mini-pump, mean ± SD
Procedure: as §1, §2, §3
The animals were anaesthetised, then a ready-made cannula was inserted into the pulmonary artery in a conventional manner via the right jugular vein, atrium and ventricle. A catheter was inserted into the left jugular vein in order to allow intravenous administration of active substances. The left carotid artery was also fitted with a cannula for the purpose of measuring systemic blood pressure. Once the animals were conscious, pulmonary artery pressure (PAP) was recorded. The rats were then exposed to hypoxic conditions (10% O2) again for 10 minutes in a mini-chamber and the increase in pulmonary artery pressure was measured and also recorded. The effects of the test substance on PAP under normotoxic and hypoxic conditions are presented in Table 1 in comparison with the control tests. The given data are means±standard deviations and were statistically analysed by means of ANOVA.

chronically hypoxic rats [3] = assay: Haemodynamic tests: systemic blood pressure via carotid artery cannula; conditions: 40 mg/kg per day, result in words
Procedure: as §1, §2
The animals were treated with the active substance or a vehicle by means of osmotic mini-pumps. […]
The animals were anaesthetised, then a ready-made cannula was inserted into the pulmonary artery in a conventional manner via the right jugular vein, atrium and ventricle. […] Once the animals were conscious, pulmonary artery pressure (PAP) was recorded. The rats were then exposed to hypoxic conditions (10% O2) again for 10 minutes in a mini-chamber and the increase in pulmonary artery pressure was measured and also recorded. […] The given data are means±standard deviations and were statistically analysed by means of ANOVA.

chronically hypoxic rats [4] = assay: Measurement of the antihypertrophic effect: right and left ventricular weights; conditions: for Rt/LtHWt (ratio of right to left ventricular weight) / RtHWt (right ventricular weight) / RtHWt/BW (ratio of right ventricular weight to body weight): rats, 40 mg/kg/day for 14 days, mean ± SD
Procedure: as §1, §2, §3
After completion of the haemodynamic tests, the animals were sacrificed and their hearts were dissected out. The weights of the right and left ventricles were determined and calculated in relation to bodyweight. The effects of the test substance on the heart weights under normotoxic and hypoxic conditions are presented in Table 1 in comparison with the control tests. The given data are means±standard deviations and were statistically analysed by means of ANOVA.

[5] = hypoxic rats, 40 mg/kg per day, result in words
[6] = rats, 14 days' hypoxia, 40 mg/kg/day for 14 days, mean ± SD, n = 8

SMILES: O=C(O)CN1C(=O)[C@@H](NC(=O)C2(C[C@@H](CCc3ccccc3)C(=O)O)CCCC2)CCc2ccccc21 [Test substance]
- Effect on muscularisation of the distal pulmonary vessels (chronically hypoxic rats [1]; [5]): statistically significantly reduced
- Muscularised distal pulmonary vessels (chronically hypoxic rats [1]; [6]): 52 ± 5 %
- Non-muscularised distal pulmonary vessels (chronically hypoxic rats [1]; [6]): 9 ± 3%
- Partly muscularised distal pulmonary vessels (chronically hypoxic rats [1]; [6]): 39 ± 4 %
- Effect on pulmonary artery pressure (PAP) in comparison with hypoxic control animals (chronically hypoxic rats [2]; [5]): statistically significant decrease
- PAP (pulmonary artery pressure) (chronically hypoxic rats [2]; 14-day hypoxia (10% O2), n=9): 33.2 ± 1.2 mmHg
- PAP (pulmonary artery pressure) (chronically hypoxic rats [2]; 14-day normoxia, n = 8): 22.2 ± 1 mmHg
- Effect on normal systemic blood pressure (hypotensive properties) (chronically hypoxic rats [3]): unaffected
- Effect on ratio between right and left ventricular weights (chronically hypoxic rats [4]; [5]): tendency towards a reduction
- Effect on ratio between right heart weight and bodyweight (chronically hypoxic rats [4]; [5]): tendency towards a reduction
- Effect on right heart weight (antihypertrophic effect) in comparison with hypoxic control tests (chronically hypoxic rats [4]; [5]): statistically significant reduction
- Rt/LtHWt (ratio of right to left ventricular weight) (chronically hypoxic rats [4]; 14-day hypoxia (10% O2), n=9): 0.40 ± 0.02 mg/mg
- RtHWt (right ventricular weight) (chronically hypoxic rats [4]; 14-day hypoxia (10% O2), n=9): 242 ± 6.4 mg
- RtHWt/BW (ratio of right ventricular weight to body weight) (chronically hypoxic rats [4]; 14-day hypoxia (10% O2), n=9): 0.87 ± 0.03 mg/g
- Rt/LtHWt (ratio of right to left ventricular weight) (chronically hypoxic rats [4]; 14-day normoxia, n = 8): 0.25 ± 0.01 mg/mg
- RtHWt (right ventricular weight) (chronically hypoxic rats [4]; 14-day normoxia, n = 8): 171 ± 10 mg
- RtHWt/BW (ratio of right ventricular weight to body weight) (chronically hypoxic rats [4]; 14-day normoxia, n = 8): 0.56 ± 0.03 mg/g
